# According to patent US20110086834A1, “ALKYNYL ALCOHOLS AS KINASE INHIBITORS” (AMGEN INC., priority 2008, published 2011):
# Molecular target: T1, NIK (Homo sapiens, UniProt Q99558)
# T1 construct: Both assays utilize a truncated form of NIK containing only the catalytic domain; made in house; host or cells: baculovirus expression system (insect cells implied)
# Assay: homogenous time resolved fluorescence (HTRF) assay for NIK Ki measurement
# Assay type: biochemical
# Details: truncated NIK (catalytic domain only), autophosphorylation; 10 nM enzyme; 20, 100, 200 or 500 μM ATP; room temperature, 2 hours; read-out: Ki activity in the homogenous time resolved fluorescence (HTRF) assay for NIK
# T1 sequence (Q99558 400-655 limits assumed): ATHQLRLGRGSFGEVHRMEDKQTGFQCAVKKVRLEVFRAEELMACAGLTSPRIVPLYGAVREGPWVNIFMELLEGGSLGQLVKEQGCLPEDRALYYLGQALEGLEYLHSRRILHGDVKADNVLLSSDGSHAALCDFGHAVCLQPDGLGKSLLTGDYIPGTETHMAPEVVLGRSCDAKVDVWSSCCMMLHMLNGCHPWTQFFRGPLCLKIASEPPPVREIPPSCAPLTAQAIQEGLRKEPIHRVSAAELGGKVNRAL
row,Ki,SMILES
1,< 1000 nM,"Nc1ncc(Cl)c(-c2cn(CCN3CCOCC3)c3ccc(C#CC4(O)CCCCC4)cc23)n1 [Example 132, 1-(2-(3-(2-amino-5-chloropyrimidin-4-yl)-1-(2-morpholinoethyl)-1H-indol-5-yl)ethynyl)cyclohexanol]"
2,< 1000 nM,"COCCOCCn1cc(-c2nc(N)ncc2F)c2cc(C#CC3(O)CCCC3)ccc21 [Example 133, 1-(2-(3-(2-amino-5-fluoropyrimidin-4-yl)-1-(2-(2-methoxyethoxy)ethyl)-1H-indol-5-yl)ethynyl)cyclopentanol]"
3,< 1000 nM,"Nc1ncc(Cl)c(-c2cn(CC3CCOC3)c3ccc(C#CC4(O)CCCC4)cc23)n1 (stereo not drawn) [Example 134, 1-(2-(3-(2-amino-5-chloropyrimidin-4-yl)-1-((tetrahydrofuran-3-yl)methyl)-1H-indol-5-yl)ethynyl)cyclopentanol]"
4,< 1000 nM,"Nc1ncc(F)c(-c2cn(CC3CCOC3)c3ccc(C#CC4(O)CCCC4)cc23)n1 (stereo not drawn) [Example 135, 1-(2-(3-(2-amino-5-fluoropyrimidin-4-yl)-1-((tetrahydrofuran-3-yl)methyl)-1H-indol-5-yl)ethynyl)cyclopentanol]"
5,< 1000 nM,"Nc1ncc(Cl)c(-c2cn(C[C@@H]3CCCO3)c3ccc(C#CC4(O)CCCC4)cc23)n1 [Example 136, 1-(2-(3-(2-amino-5-chloropyrimidin-4-yl)-1-(((S)-tetrahydrofuran-2-yl)methyl)-1H-indol-5-yl)ethynyl)cyclopentanol]"
6,< 1000 nM,"CN1CCC(n2cc(-c3nc(N)ncc3Cl)c3cc(C#CC4(O)CCCC4)ccc32)C1 (stereo not drawn) [Example 139, 1-(2-(3-(2-amino-5-chloropyrimidin-4-yl)-1-(1-methylpyrrolidin-3-yl)-1H-indol-5-yl)ethynyl)cyclopentanol]"
7,< 1000 nM,"COc1ccc(C#CC(C)(O)c2nccs2)cc1Nc1nc(N)ncc1Cl (stereo not drawn) [Example 143, 4-(3-((2-amino-5-chloro-4-pyrimidinyl)amino)-4-(methyloxy)phenyl)-2-(1,3-thiazol-2-yl)-3-butyn-2-ol]"
8,< 1000 nM,"COc1ccc(C#CC(C)(O)c2cc(C)no2)cc1Nc1nc(N)ncc1Cl (stereo not drawn) [Example 144, 4-(3-((2-amino-5-chloro-4-pyrimidinyl)amino)-4-(methyloxy)phenyl)-2-(3-methyl-5-isoxazolyl)-3-butyn-2-ol]"
9,< 1000 nM,"COc1ccc(C#CC2(O)CCCC2)cc1Nc1nc(N)ncc1Cl [Example 145, 1-((3-((2-amino-5-chloro-4-pyrimidinyl)amino)-4-(methyloxy)-phenyl)ethynyl)-cyclopentanol]"
10,< 1000 nM,"COc1ccc(C#C[C@@](C)(O)c2nccs2)cc1Nc1nc(N)ncc1Cl [Example 146, (R)-4-(3-(2-Amino-5-chloropyrimidin-4-ylamino)-4-methoxyphenyl)-2-(thiazol-2-yl)but-3-yn-2-ol]"
11,1000 to 30000 nM,"CC(O)(C#Cc1cccc(Nc2nc(N)ncc2Cl)n1)c1nccs1 (stereo not drawn) [Example 147, 4-(6-(2-Amino-5-chloropyrimidin-4-ylamino)pyridin-2-yl)-2-(thiazol-2-yl)but-3-yn-2-ol]"
12,< 1000 nM,"Cc1cc(C(C)(O)C#Cc2ccc(OC3CCOCC3)c(Nc3nc(N)ncc3Cl)c2)no1 (stereo not drawn) [Example 148, 4-(3-(2-Amino-5-chloropyrimidin-4-ylamino)-4-(tetrahydro-2H-pyran-4-yloxy)phenyl)-2-(5-methylisoxazol-3-yl)but-3-yn-2-ol]"
13,< 1000 nM,"Nc1ncc(Cl)c(Nc2cc(C#CC3(O)CCCC3)ccc2OC2CCOCC2)n1 [Example 149, 1-(2-(3-(2-Amino-5-chloropyrimidin-4-ylamino)-4-(tetrahydro-2H-pyran-4-yloxy)phenyl)ethynyl)cyclopentanol]"
14,< 1000 nM,"COc1ccc(C#CC(C)(O)c2cc(C)on2)cc1Nc1nc(N)ncc1Cl (stereo not drawn) [Example 150, 4-(3-(2-Amino-5-chloropyrimidin-4-ylamino)-4-methoxyphenyl)-2-(5-methylisoxazol-3-yl)but-3-yn-2-ol]"
15,< 1000 nM,"COCCN(C)c1ccc(C#CC(C)(O)c2cc(C)on2)cc1Nc1nc(N)ncc1Cl (stereo not drawn) [Example 151, 4-(3-(2-Amino-5-chloropyrimidin-4-ylamino)-4-((2-methoxyethyl)(methyl)amino)phenyl)-2-(5-methylisoxazol-3-yl)but-3-yn-2-ol]"
16,< 1000 nM,"CC(O)(C#Cc1ccc(OC2CCOCC2)c(Nc2nc(N)ncc2Cl)c1)c1nccs1 (stereo not drawn) [Example 152, 4-(3-(2-Amino-5-chloropyrimidin-4-ylamino)-4-(tetrahydro-2H-pyran-4-yloxy)phenyl)-2-(thiazol-2-yl)but-3-yn-2-ol]"
17,1000 to 30000 nM,"COCCN(C)c1ccc(C#C[C@](C)(O)c2nccs2)cc1Nc1nc(N)ncc1Cl [Example 153, (S)-4-(3-(2-Amino-5-chloropyrimidin-4-ylamino)-4-((2-methoxyethyl)(methyl)-amino)phenyl)-2-(thiazol-2-yl)but-3-yn-2-ol]"
18,< 1000 nM,"COCCN(C)c1ccc(C#C[C@@](C)(O)c2nccs2)cc1Nc1nc(N)ncc1Cl [Example 154, (R)-4-(3-(2-Amino-5-chloropyrimidin-4-ylamino)-4-((2-methoxyethyl)(methyl)amino)phenyl)-2-(thiazol-2-yl)but-3-yn-2-ol]"
19,< 1000 nM,CC(O)(C#Cc1ccc(O[C@H]2CCOC2)c(Nc2nc(N)ncc2Cl)c1)c1nccs1 (stereo partly drawn) [Example 155]
20,< 1000 nM,Cc1cc(C(C)(O)C#Cc2ccc(O[C@H]3CCOC3)c(Nc3nc(N)ncc3Cl)c2)no1 (stereo partly drawn) [Example 156]

row,Ki,SMILES
1,< 1000 nM,"CC(O)(C#Cc1ccc(CN2CCOCC2)c(Nc2nc(N)ncc2Cl)c1)c1nccs1 (stereo not drawn) [Example 157, 4-(3-(2-Amino-5-chloropyrimidin-4-ylamino)-4-(morpholinomethyl)phenyl)-2-(thiazol-2-yl)but-3-yn-2-ol]"
2,< 1000 nM,"Cc1cc(C(C)(O)C#Cc2ccc(CN3CCOCC3)c(Nc3nc(N)ncc3Cl)c2)no1 (stereo not drawn) [Example 158, 4-(3-(2-Amino-5-chloropyrimidin-4-ylamino)-4-(morpholinomethyl)phenyl)-2-(5-methylisoxazol-3-yl)but-3-yn-2-ol]"
3,< 1000 nM,CC(O)(C#Cc1ccc(O[C@@H]2CCOC2)c(Nc2nc(N)ncc2Cl)c1)c1nccs1 (stereo partly drawn) [Example 159]
4,< 1000 nM,"Cc1ccc(C#CC(C)(O)c2nccs2)cc1Nc1nc(N)ncc1Cl (stereo not drawn) [Example 160, 4-(3-(2-Amino-5-chloropyrimidin-4-ylamino)-4-methylphenyl)-2-(thiazol-2-yl)but-3-yn-2-ol]"
5,< 1000 nM,"Cc1cc(C(C)(O)C#Cc2ccc(C)c(Nc3nc(N)ncc3Cl)c2)no1 (stereo not drawn) [Example 161, 4-(3-(2-Amino-5-chloropyrimidin-4-ylamino)-4-methylphenyl)-2-(5-methylisoxazol-3-yl)but-3-yn-2-ol]"
6,< 1000 nM,"C[C@](O)(C#Cc1ccc(CN2CCOCC2)c(Nc2nc(N)ncc2Cl)c1)c1nccs1 [Example 162, (S)-4-(3-(2-Amino-5-chloropyrimidin-4-ylamino)-4-(morpholinomethyl)phenyl)-2-(thiazol-2-yl)but-3-yn-2-ol]"
7,< 1000 nM,"C[C@@](O)(C#Cc1ccc(CN2CCOCC2)c(Nc2nc(N)ncc2Cl)c1)c1nccs1 [Example 163, (R)-4-(3-(2-Amino-5-chloropyrimidin-4-ylamino)-4-(morpholinomethyl)phenyl)-2-(thiazol-2-yl)but-3-yn-2-ol]"
8,< 1000 nM,"CN(c1cc(C#CC(C)(O)c2nccs2)ccc1OC1CCOCC1)c1nc(N)ncc1Cl (stereo not drawn) [Example 165, 4-(3-((2-amino-5-chloropyrimidin-4-yl)(methyl)amino)-4-(tetrahydro-2H-pyran-4-yloxy)phenyl)-2-(thiazol-2-yl)but-3-yn-2-ol]"
9,< 1000 nM,"CC(O)(C#Cc1ccc(F)c(Nc2nc(N)ncc2Cl)c1)c1nccs1 (stereo not drawn) [Example 166, 4-(3-(2-Amino-5-chloropyrimidin-4-ylamino)-4-fluorophenyl)-2-(thiazol-2-yl)but-3-yn-2-ol]"
10,< 1000 nM,"Cc1cc(C(C)(O)C#Cc2ccc(F)c(Nc3nc(N)ncc3Cl)c2)no1 (stereo not drawn) [Example 167, 4-(3-(2-Amino-5-chloropyrimidin-4-ylamino)-4-fluorophenyl)-2-(5-methylisoxazol-3-yl)but-3-yn-2-ol]"
11,1000 to 30000 nM,"CC(O)(C#Cc1cncc(C(=O)Nc2ccncn2)c1)c1nccs1 (stereo not drawn) [Example 168, 5-(3-Hydroxy-3-(thiazol-2-yl)but-1-ynyl)-N-(pyrimidin-4-yl)nicotinamide]"
12,1000 to 30000 nM,CC(O)(C#Cc1ccc(O[C@H]2CCOC2)c(Nc2ccncc2)c1)c1nccs1 (stereo partly drawn) [Example 169]
13,1000 to 30000 nM,"Cc1ccc(C#CC(C)(O)c2nccs2)cc1Nc1ccc(C#N)cn1 (stereo not drawn) [Example 170, 6-(5-(3-Hydroxy-3-(thiazol-2-yl)but-1-ynyl)-2-methylphenylamino)nicotinonitrile]"
14,< 1000 nM,"CC(O)(C#Cc1ccc(OC2CCOCC2)c(Nc2ncncc2Cl)c1)c1nccs1 (stereo not drawn) [Example 171, 4-(3-(5-Chloropyrimidin-4-ylamino)-4-(tetrahydro-2H-pyran-4-yloxy)phenyl)-2-(thiazol-2-yl)but-3-yn-2-ol]"
15,1000 to 30000 nM,"Cc1ccc(C#CC(C)(O)c2nccs2)cc1Nc1ccncc1 (stereo not drawn) [Example 172, 4-(4-Methyl-3-(pyridin-4-ylamino)phenyl)-2-(thiazol-2-yl)but-3-yn-2-ol]"
16,< 1000 nM,"CC(O)(C#Cc1cccc(Nc2ccncn2)n1)c1nccs1 (stereo not drawn) [Example 173, 4-(6-(pyrimidin-4-ylamino)pyridin-2-yl)-2-(thiazol-2-yl)but-3-yn-2-ol]"
17,1000 to 30000 nM,"CC(O)(C#Cc1cccc(Nc2ccncc2C(F)(F)F)n1)c1nccs1 (stereo not drawn) [Example 174, 2-(thiazol-2-yl)-4-(6-(3-(trifluoromethyl)pyridin-4-ylamino)pyridin-2-yl)but-3-yn-2-ol]"
18,1000 to 30000 nM,"CC(O)(C#Cc1cccc(N(CCN2CCOCC2)c2ccncn2)n1)c1nccs1 (stereo not drawn) [Example 175, 4-(6-((2-morpholinoethyl)(pyrimidin-4-yl)amino)pyridin-2-yl)-2-(thiazol-2-yl)but-3-yn-2-ol]"
19,< 1000 nM,"Cc1cc([C@](C)(O)C#Cc2ccc(F)c(Nc3nc(N)ncc3Cl)c2)no1 [Example 176, (R)-4-(3-(2-Amino-5-chloropyrimidin-4-ylamino)-4-fluorophenyl)-2-(5-methylisoxazol-3-yl)but-3-yn-2-ol]"
